Experimental data from patent US20260374754A1, “N-((ISOQUINOLIN-6-YL)METHYL)-1H-PYRAZOLE-4-CARBOXAMIDE DERIVATIVES AS PLASMA KALLIKREIN INHIBITORS FOR THE TREATMENT OF HEREDITARY ANGIODEMA” (Takeda Pharmaceutical Company Limited, priority 2022, published 2026).

What follows are molecules tested against human activated kallikrein enzyme (Homo sapiens, UniProt P03952) (assay: Inhibition of human activated plasma kallikrein, fluorogenic PFR-AMC substrate, 500 pM enzyme format). Details: 500 pM activated kallikrein; 300 μM PFR-AMC; 30 min preincubation; 10 min room temperature; pH 7.5; read-out: Primary Dose Response Assay: Average EC50.
Assay type: biochemical
How it was run: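 Using fluorogenic PFR-AMC at 300 μM, cleavage by 500 pM human activated kallikrein ran 10 min at room temperature, read at 460 nm emission (380 nm excitation). Enzyme and compounds were first preincubated 30 min in 20 mM Tris pH 7.5, 150 mM NaCl, 1 mM EDTA, 0.1% PEG-400, 0.1% Triton X-100.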

Chain of human activated kallikrein enzyme (P03952 391-638 limits assumed): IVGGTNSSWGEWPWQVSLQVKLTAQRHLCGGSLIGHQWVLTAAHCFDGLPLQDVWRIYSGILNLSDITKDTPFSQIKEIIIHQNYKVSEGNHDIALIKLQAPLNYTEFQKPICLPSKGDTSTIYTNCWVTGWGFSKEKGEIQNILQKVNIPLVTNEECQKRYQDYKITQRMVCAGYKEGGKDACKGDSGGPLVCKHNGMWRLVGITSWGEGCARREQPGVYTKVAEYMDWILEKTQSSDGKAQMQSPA
Chain of human activated kallikrein enzyme (P03952 20-390 partner limits assumed): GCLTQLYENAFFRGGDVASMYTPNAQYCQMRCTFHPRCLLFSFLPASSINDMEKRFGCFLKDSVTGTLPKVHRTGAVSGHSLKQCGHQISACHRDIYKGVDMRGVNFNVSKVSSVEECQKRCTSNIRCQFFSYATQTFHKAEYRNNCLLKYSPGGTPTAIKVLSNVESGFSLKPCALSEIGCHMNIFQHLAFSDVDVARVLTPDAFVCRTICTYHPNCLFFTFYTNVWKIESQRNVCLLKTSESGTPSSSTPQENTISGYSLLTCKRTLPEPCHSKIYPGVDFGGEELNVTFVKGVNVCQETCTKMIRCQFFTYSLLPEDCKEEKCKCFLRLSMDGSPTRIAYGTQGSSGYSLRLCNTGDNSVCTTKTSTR

EC50 [nM]	Compound
< 1	Cc1cc2c(N)nccc2c(C)c1CNc1cc(C(O)c2cn3cc(C4CC4)ccc3n2)ccn1 (stereo not drawn) [Example 453, (2-(((1-amino-5,7-dimethylisoquinolin-6-yl)methyl)amino)pyridin-4-yl)(6-cyclopropylimidazo[1,2-a]pyridin-2-yl)methanol]
< 1	Cc1cc2c(N)nccc2c(C)c1CNc1cc(OCc2cn3cc(C4CC4)ccc3n2)nc(C(=O)O)n1 [Example 487, 4-(((1-amino-5,7-dimethylisoquinolin-6-yl)methyl)amino)-6-((6-cyclopropylimidazo[1,2-a]pyridin-2-yl)methoxy)pyrimidine-2-carboxylic acid]
< 1	Cc1cc2c(N)nccc2c(C)c1CNc1cc(OCc2cn3cc(C4CC4)cnc3n2)nc(C(=O)O)n1 [Example 488, 4-(((1-amino-5,7-dimethylisoquinolin-6-yl)methyl)amino)-6-((6-cyclopropylimidazo[1,2-a]pyrimidin-2-yl)methoxy)pyrimidine-2-carboxylic acid]
1 to 10	Cc1cc2c(N)nccc2c(C)c1CNc1nccc(OCc2cn3cc(C4CC4)ccc3n2)n1 [Example 492, 6-(((4-((6-cyclopropylimidazo[1,2-a]pyridin-2-yl)methoxy)pyrimidin-2-yl)amino)methyl)-5,7-dimethylisoquinolin-1-amine]
10 to 100	Cc1cc2c(N)nccc2c(C)c1CNc1cc(OC(C)c2cn3nc(C4CC4)ccc3n2)ncn1 (stereo not drawn) [Example 493, 6-(((6-(1-(6-cyclopropylimidazo[1,2-b]pyridazin-2-yl)ethoxy)pyrimidin-4-yl)amino)methyl)-5,7-dimethylisoquinolin-1-amine]
> 1000	Cc1cc2c(N)nccc2c(C)c1CNc1cc(OCc2cn3cc(C4CC4)ccc3n2)cnc1C(=O)O [Example 495, 3-(((1-amino-5,7-dimethylisoquinolin-6-yl)methyl)amino)-5-((6-cyclopropylimidazo[1,2-a]pyridin-2-yl)methoxy)picolinic acid]
> 1000	Cc1cc2c(N)nccc2c(C)c1CNc1cc(NCc2cn3cc(C4CC4)ccc3n2)cnc1C(=O)O [Example 497, 3-(((1-amino-5,7-dimethylisoquinolin-6-yl)methyl)amino)-5-(((6-cyclopropylimidazo[1,2-a]pyridin-2-yl)methyl)amino)picolinic acid]
> 1000	Cc1cc2c(N)nccc2c(C)c1CNc1cc(=O)n(Cc2cn3c(=O)n(C4CC4)ccc3n2)cn1 [Example 505, 2-((4-(((1-amino-5,7-dimethylisoquinolin-6-yl)methyl)amino)-6-oxopyrimidin-1(6H)-yl)methyl)-6-cyclopropylimidazo[1,2-c]pyrimidin-5(6H)-one]
10 to 100	Cc1cc2c(N)nccc2c(C)c1CNc1ncccc1NCc1cn2cc(C3CC3)ccc2n1 [Example 506, N^2-((1-amino-5,7-dimethylisoquinolin-6-yl)methyl)-N^3-((6-cyclopropylimidazo[1,2-a]pyridin-2-yl)methyl)pyridine-2,3-diamine]
1 to 10	Cc1cc2c(N)nccc2c(C)c1CNC(=O)Nc1ncncc1OCc1cn2cc(C3CC3)ccc2n1 [Example 507, 1-((1-amino-5,7-dimethylisoquinolin-6-yl)methyl)-3-(5-((6-cyclopropylimidazo[1,2-a]pyridin-2-yl)methoxy)pyrimidin-4-yl)urea]
1 to 10	Cc1cc2c(N)nccc2c(C)c1CNc1nsc(NCc2cn3cc(C4CC4)ccc3n2)n1 [Example 511, N^3-((1-amino-5,7-dimethylisoquinolin-6-yl)methyl)-N^5-((6-cyclopropylimidazo[1,2-a]pyridin-2-yl)methyl)-1,2,4-thiadiazole-3,5-diamine]
1 to 10	Cc1cc2c(N)nccc2c(C)c1CNc1cc(N2C[C@@H](O[Si](C)(C)C(C)(C)C)C[C@@H]2c2cn3cc(C4CC4)ccc3n2)ncn1 [Example 512, 6-(((6-((2R,4S)-4-((tert-butyldimethylsilyl)oxy)-2-(6-cyclopropylimidazo[1,2-a]pyridin-2-yl)pyrrolidin-1-yl)pyrimidin-4-yl)amino)methyl)-5,7-dimethylisoquinolin-1-amine]
10 to 100	Cc1cc2c(N)nccc2c(C)c1CNc1cc(N(Cc2cn3nc(C4CC4)ccc3n2)CC(F)(F)F)ncn1 [Example 516, N^4-((1-amino-5,7-dimethylisoquinolin-6-yl)methyl)-N^6-((6-cyclopropylimidazo[1,2-b]pyridazin-2-yl)methyl)-N6-(2,2,2-trifluoroethyl)pyrimidine-4,6-diamine]

Second part, the molecule before the results:

Compound	EC50 [nM]
Cc1cc2c(N)nccc2c(C)c1CNc1cc(NCc2ccc(Cn3cccn3)cc2)cnn1 [Example 447, N^5-(4-((1H-pyrazol-1-yl)methyl)benzyl)-N^3-((1-amino-5,7-dimethylisoquinolin-6-yl)methyl)pyridazine-3,5-diamine]	< 1
Cc1cc2c(N)nccc2c(C)c1CNc1cc(NCc2ccccc2)cnn1 [Example 448, N^3-((1-amino-5,7-dimethylisoquinolin-6-yl)methyl)-N5-benzylpyridazine-3,5-diamine]	100 to 1000
Cc1cc2c(N)nccc2c(C)c1CNc1cc(OCc2ccccc2)ncn1 [Example 449, 6-(((6-(benzyloxy)pyrimidin-4-yl)amino)methyl)-5,7-dimethylisoquinolin-1-amine]	> 1000
Cc1cc2c(N)nccc2c(C)c1CNc1cc(OCc2ccc(Cn3cccn3)cc2)c(C(F)(F)F)nn1 [Example 450, 6-(((5-((4-((1H-pyrazol-1-yl)methyl)benzyl)oxy)-6-(trifluoromethyl)pyridazin-3-yl)amino)methyl)-5,7-dimethylisoquinolin-1-amine]	1 to 10
Cc1cc2c(N)nccc2c(C)c1CNc1cc(NCc2ccc3ncccc3c2)c(C(N)=O)nn1 [Example 452, 6-(((1-amino-5,7-dimethylisoquinolin-6-yl)methyl)amino)-4-((quinolin-6-ylmethyl)amino)pyridazine-3-carboxamide]	10 to 100
CCOC(=O)c1nc(NCc2c(C)cc3c(N)nccc3c2C)cc(OCc2cn3cc(C4CC4)cnc3n2)n1 [Example 489, ethyl 4-(((1-amino-5,7-dimethylisoquinolin-6-yl)methyl)amino)-6-((6-cyclopropylimidazo[1,2-a]pyrimidin-2-yl)methoxy)pyrimidine-2-carboxylate]	< 1
Cc1cc2c(N)nccc2c(C)c1CNS(=O)(=O)c1cnn(Cc2cn3cc(C4CC4)ccc3n2)c1 [Example 490, N-((1-amino-5,7-dimethylisoquinolin-6-yl)methyl)-1-((6-cyclopropylimidazo[1,2-a]pyridin-2-yl)methyl)-1H-pyrazole-4-sulfonamide]	10 to 100
Cc1cc2c(N)nccc2c(C)c1CNS(=O)(=O)c1cn(Cc2cn3cc(C4CC4)ccc3n2)nn1 [Example 491, N-((1-amino-5,7-dimethylisoquinolin-6-yl)methyl)-1-((6-cyclopropylimidazo[1,2-a]pyridin-2-yl)methyl)-1H-1,2,3-triazole-4-sulfonamide]	10 to 100
Cc1cc2c(N)nccc2c(C)c1CN1C(=O)c2ncc(OCc3cn4cc(C5CC5)ccc4n3)cc21 [Example 494, 7-((1-amino-5,7-dimethylisoquinolin-6-yl)methyl)-4-((6-cyclopropylimidazo[1,2-a]pyridin-2-yl)methoxy)-2,7-diazabicyclo[4.2.0]octa-1,3,5-trien-8-one]	> 1000
Cc1cc2c(N)nccc2c(C)c1CN1C(=O)c2ncc(NCc3cn4cc(C5CC5)ccc4n3)cc21 [Example 496, 7-((1-amino-5,7-dimethylisoquinolin-6-yl)methyl)-4-(((6-cyclopropylimidazo[1,2-a]pyridin-2-yl)methyl)amino)-2,7-diazabicyclo[4.2.0]octa-1,3,5-trien-8-one]	100 to 1000
Cc1cc2c(Nc3cc4c(cn3)nnn4Cc3cn4cc(C5CC5)ccc4n3)nccc2c(C)c1CN [Example 502, 6-((l2-azanyl)methyl)-N-(1-((6-cyclopropylinmidazo[1,2-a]pyridin-2-yl)methyl)-1H-[1,2,3]triazolo[4,5-c]pyridin-6-yl)-5,7-dimethylisoquinolin-1-amine]	> 1000
Cc1cc2c(N)nccc2c(C)c1CNc1cc2c(ccn2Cc2ccc3ncccc3c2)cn1 [Example 517, 5,7-dimethyl-6-(((1-(quinolin-6-ylmethyl)-1H-pyrrolo[3,2-c]pyridin-6-yl)amino)methyl)isoquinolin-1-amine]	100 to 1000
Cc1cc2c(N)nccc2c(C)c1CNc1cc2c(ccn2Cc2ccc3ncc(Cl)cc3c2)cn1 [Example 518, 6-(((1-((3-chloroquinolin-6-yl)methyl)-1H-pyrrolo[3,2-c]pyridin-6-yl)amino)methyl)-5,7-dimethylisoquinolin-1-amine]	> 1000
Cc1cc2c(N)nccc2c(C)c1CNc1ccc2nnc(Cc3ccc4ncc(Cl)cc4c3)n2c1 [Example 519, 6-(((3-((3-chloroquinolin-6-yl)methyl)-[1,2,4]triazolo[4,3-a]pyridin-6-yl)amino)methyl)-5,7-dimethylisoquinolin-1-amine]	100 to 1000
Cc1cc2c(N)nccc2c(C)c1CNc1ccc2cnc(Cc3ccc4ncc(Cl)cc4c3)n2c1 [Example 520, 6-(((3-((3-chloroquinolin-6-yl)methyl)imidazo[1,5-a]pyridin-6-yl)amino)methyl)-5,7-dimethylisoquinolin-1-amine]	> 1000
Cc1cc2c(N)nccc2c(C)c1CNc1ccc2ncc(C(O)c3ccc4ccccc4c3)n2c1 (stereo not drawn) [Example 521, (6-(((1-amino-5,7-dimethylisoquinolin-6-yl)methyl)amino)imidazo[1,2-a]pyridin-3-yl)(naphthalen-2-yl)methanol]	> 1000
Cc1cc2c(N)nccc2c(C)c1CNc1ccc2ncc(Cc3ccc4ccccc4c3)n2c1 [Example 522, 5,7-dimethyl-6-(((3-(naphthalen-2-ylmethyl)imidazo[1,2-a]pyridin-6-yl)amino)methyl)-isoquinolin-1-amine]	> 1000
